From article PMC8004991, “The Interaction of the Flavonoid Fisetin with Human Glutathione Transferase A1-1” (Metabolites, 2021) come the findings set out here.

SMILES strings stand for the structures.

Usually IC50 stands for the concentration needed to halve the response being measured.

This test deals with T1, human glutathione transferase A1-1 (hGSTA1-1) (Homo sapiens, UniProt P08263).
T1 construct: gene GSTA1
T1 sequence (P08263 2-222): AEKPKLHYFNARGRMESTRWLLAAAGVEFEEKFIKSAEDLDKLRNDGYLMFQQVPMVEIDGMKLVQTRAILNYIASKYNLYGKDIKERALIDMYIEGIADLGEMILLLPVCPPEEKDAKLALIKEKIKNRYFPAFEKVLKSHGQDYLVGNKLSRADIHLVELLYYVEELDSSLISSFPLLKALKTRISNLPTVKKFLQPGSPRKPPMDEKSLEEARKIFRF
Kind of test: CDNB/GSH conjugation assay with purified recombinant hGSTA1-1; IC50 and steady-state inhibition kinetics (Ki […] vs GSH, […] vs CDNB). In kind it is biochemical. The source says: Fisetin appears to be a strong inhibitor for hGSTA1-1

For `O=c1c(O)c(-c2ccc(O)c(O)c2)oc2cc(O)ccc12` [fisetin], the IC50 worked out at 1200 ± 100 nM.
